Results published in patent US20200216906A1, “METHODS AND COMPOSITIONS RELATING TO THE DIAGNOSIS AND TREATMENT OF CANCER” (PRESIDENT AND FELLOWS OF HARVARD COLLEGE, priority 2015, published 2020).

How the values were obtained:
[1] = test system: pancreatic cancer cell lines; experiment: Kinetic cell growth assay, panel of pancreatic cancer cell lines; assay type: cell-based, human; settings: low density growth conditions (Hippo-Off); read-out: EC50 on pancreatic cancer cell growth
Method: (§1) The effect of gemcitabine on pancreatic cancer cell growth was studied using a kinetic cell growth assay. Pancreatic cancer cells were plated on 96-well plates (Essen ImageLock, Essen Instruments, MI, US) at varying densities (2-4×10^3 for low density or 15-20×10^3 for high density experiments). Small molecule inhibitors at different doses were added 24 hours after plating and cell confluence was monitored with Incucyte Live-Cell Imaging System and software (Essen Instruments). Confluence was observed every hour for 48-144h or until the control (DMSO only) samples reached 100% confluence.
FIG. 20A illustrates the kinetic cell growth assay to determine the effect of gemcitabine in a panel of pancreatic cancer cell lines. Cells are plated at low crowding conditions (10-25% confluence) and 24 hours later exposed to gemcitabine in a dose-dependent manner. They are imaged every 1-3 hours until control (vehicle) treated cells reach 100% confluence. This assay is not confounded by the fact that the time required for each cell line to reach 100% confluence may be very different (as the cell lines have different doubling times). A dose response effect of gemcitabine on cell growth for 16 pancreatic cancer cell lines is shown in FIGS. 20B, 3, 31A-31C and 28, where the range of previous studies is also shown. […] Similar responses to gemcitabine were found in liver cancer cell lines (Huh7 and FOCUS) and untransformed (HEK293) cell lines (FIGS. 3, 31A-31C).
as §1, with “Kinetic Cell growth assay. The” for “The”, “(2-4X103” for “(2-4×10^3”, “15-20X103” for “15-20×10^3”, “Incucyte™” for “Incucyte”

CDA = CDA expression after verteporfin treatment; assay type: cell-based, human; settings: verteporfin treatment of Panc02.13 cells, p<0.05
Method: Cells were serum-starved for 24 h and total cellular RNA was isolated using an RNeasy™ Mini Kit (QIAGEN, Santa Clara, Calif.). mRNA levels for the EMT-related genes were determined using the RT^2 Profiler™ qPCR array (SA Biosciences Corporation, Frederick, Md.). Briefly, 1 μg of total RNA was reverse transcribed into first strand cDNA using an RT^2 First Strand™ Kit (SA Biosciences). The resulting cDNA was subjected to qPCR using human gene-specific primers for 75 different genes, and five housekeeping genes (B2M, HPRT1, RPL13A, GAPDH, and ACTB). The qPCR reaction was performed with an initial denaturation step of 10 min at 95° C., followed by 15 s at 95° C. and 60 s at 60° C. for 40 cycles using an Mx3000P™ QPCR system (Stratagene, La Jolla, Calif.).
The activity of the Hippo pathway not only affected the efflux of gemcitabine but also its major metabolite, dFdU (FIG. 22B).
RNA extraction and quantitative real-time PCR. Cells were serum-starved for 24 h and total cellular RNA was isolated using an RNeasy Mini Kit (QIAGEN, Santa Clara, Calif.). mRNA levels for the EMT-related genes were determined using the RT2 Profiler™ qPCR array (SA Biosciences Corporation, Frederick, Md.). Briefly, 1 μg of total RNA was reverse transcribed into first strand cDNA using an RT2 First Strand Kit (SA Biosciences). […]

Panc02.13 cells = experiment: 3D spheroid growth assay, Panc02.13 (GFP/parental) cells; settings: read-out: EC50 in 3D-spheroid assays; 3D-spheroid (Hippo-on)
[2] = test system: Panc02.13 cells with NF2 depletion; experiment: High-density spheroid assay, NF2-depleted Panc02.13 cells; assay type: cell-based, human
Source text: In cells at low cell density, where YAP is localized to the nucleus, presumably YAP dependent transcription is turned on. At high density, YAP is in the cytoplasm, transcription is blocked and resistance to gemcitabine is high. Given these correlations it was asked whether inactivation of Hippo pathway could restore gemcitabine sensitivity in crowded conditions. Expression of a non-phosphorylatable form of YAP (YAPS6A) in Panc02.13 pancreatic cancer cells causes constitutive nuclear localization of exogenous YAP even at high crowding (data not shown).

[3] = test system: Miapaca2-YAPS6A xenografts; experiment: Mouse xenograft, Miapaca2-YAPS6A; assay type: in vivo; settings: LC-MS/MS, p<0.01
Method: To assess the gemcitabine response to Hippo pathway inactivation in tumors a mouse xenograft model of pancreatic carcinoma cells and patient-derived xenograft (PDX) models from a variety of solid tumors including human cancers from non-small cell lung, esophagus, breast, mesothelium, ovary, colon, head and neck, sarcoma, and cholangiocarcinoma were used (FIG. 30). In mouse xenograft studies, two human pancreatic cancer cell lines (Miapac2 and Panc02.13) expressing GFP or YAPS6A were injected into athymic mice. Both parental or GFP expressing cells grew rapidly, producing palpable tumors in 5-10 days. When the tumors were ˜200 mm^3 (as measured using a caliper), mice were randomized into treatment and control groups. The […] received i.p. saline injections on alternate days for two weeks, and the latter received gemcitabine (20 mg/kg in Miapaca2-YAPS6A and 50 mg/Kg in Panc02.13-YAPS6A cohorts).
Tumorigenicity in Nude Mice. All in vivo experiments were performed using 6-week-old to 8-week-old athymic nude mice. Mice were maintained in laminar flow rooms with constant temperature and humidity. Miapaca2 or Panc02.13 cells were inoculated subcutaneously (s.c.) into each flank of the mice. Cells (2×10^6 in suspension) were injected on day 0, and tumor growth was followed every 2 to 3 days by tumor diameter measurements using vernier calipers. Tumor volumes (V) were calculated using the formula: V=AB2/2 (A, axial diameter; B, rotational diameter). When the outgrowths were • 200 mm^3, mice were divided at random into two groups (control and treated, n=3-8). The treated group received gemcitabine injection or saline control on alternate days (MWF) for 2 weeks.
Intra-tumor gemcitabine measurements.

H2052 (LATS2) cells = experiment: Gemcitabine and dFdU efflux by LC-MS/MS, H2052 cells; assay type: in vitro ADME; settings: higher in H2052 (LATS2)
Source text: Are defects in the Hippo pathway the major cause of gemcitabine sensitivity? […] Restoring the levels of LATS2 in H2052 cells caused an increase in the mRNA and proteins levels of ABCG2 and CDA (FIGS. 23C, 36A-36M).

[4] = test system: Panc02.13 cells expressing YAPS6A; experiment: Gemcitabine and dFdU efflux by LC-MS/MS, Panc02.13 YAPS6A vs GFP; assay type: in vitro ADME, human; settings: less efflux in YAPS6A after gemcitabine treatment, p<0.05
Source text: It was considered whether the Hippo pathway might affect the efflux of gemcitabine and/or its metabolites. To assess directly gemcitabine efflux in conditioned media of pancreatic cancer cells both radiolabeled gemcitabine and LC-MS/MS-based methods were used. Panc02.13 cells grown in highly crowded conditions (Hippo-ON) pumped out 2-3-fold more radiolabeled gemcitabine (counts per μg protein) compared with cells grown in less crowded conditions (Hippo-OFF) (FIG. 22A). Another pathway of inactivation and export is the enzymatic conversion of gemcitabine to a uracil derivative (2′,2′-difluorodeoxyuridine, dFdU) by deamination catalyzed by cytidine deaminase (CDA)(Veltkamp et al., 2008). The efflux of gemcitabine and its deaminated metabolite, dFdU was measured by LC-MS/MS (24) in Panc02.13 cells expressing YAPS6A or vector control after gemcitabine treatment (FIG. 22B).

Row | EC50 [1] [nM] | Reduction in intra-tumor accumulation of dFdU vs parental control xenografts [3] [fold] | Effluxed dFdU in media, H2052 (LATS2) vs parental H2052 (LATS2−/−) (H2052 (LATS2) cells) | dFdU effluxed, YAPS6A vs GFP expressing cells [4] [fold] | Molecule | Increase in CDA levels (CDA) [fold] | EC50 (Panc02.13 cells) [nM] | Sensitivity after NF2 depletion [2]
1 | < 500 |  |  |  | verteporfin | 3 | > 5000 | restored sensitivity
2 |  | > 4 | 2-3 fold | 5 | O=c1ccn([C@@H]2O[C@H](CO)[C@@H](O)C2(F)F)c(=O)[nH]1 [dFdU, 2′,2′-difluorodeoxyuridine] |  |  | 
